# Values quoted from earlier work as cited in patent US9655905B2, “Treatment of sickle cell disease” (KING ABDULLAH UNIVERSITY OF SCIENCE AND TECHNOLOGY, priority 2011, dated 2017).
# Experiments:
# IL-8 = tested on: IL-8; parameters: key to Effect on IL-8: increases protein levels; decrease: reduces protein levels; exert no effect on protein levels; not known: has not been experimentally determined
# SELE = settings: for Effect on SELE: Table 6, adhesion, up in SCD
# CD36 = tested on: CD36; parameters: key to Effect on CD36: increases protein levels; decrease: reduces protein levels; exert no effect on protein levels; not known: has not been experimentally determined
# [1] = tested on: erythrocyte-endothelial adhesion; settings: HU therapy (Gambero, et al 2007)
# IL-1β = settings: for Effect on IL-1β: Table 6, cytokine/inflammatory, up in SCD
# FN1 = settings: for Effect on FN1: Table 6, coagulatory, up in SCD
# SELP = settings: for Effect on SELP: Table 6, adhesion, up in SCD
# IL-10 = settings: for Effect on IL-10: Table 6, anti-inflammatory; for levels of anti-inflammatory mediator IL-10: cited literature
# TNFα = settings: for Effect on TNFα: Table 6, cytokine/inflammatory, up in SCD; for levels of TNF-α: cited literature
# IL-3 = tested on: IL-3; parameters: key: increases protein levels; decrease: reduces protein levels; exert no effect on protein levels; not known: has not been experimentally determined; settings: Table 6; inflammatory, up in SCD
# ET-1 = settings: for Effect on ET-1: Table 6, vasoconstrictor, up in SCD; for levels of vasoconstrictor ET-1: cited literature
# NO = settings: for Effect on NO: Table 6, vasodilator, down in SCD
# GM-CSF = tested on: GM-CSF; parameters: key to Effect on GM-CSF: increases protein levels; decrease: reduces protein levels; exert no effect on protein levels; not known: has not been experimentally determined
# eNOS = settings: for Effect on eNOS: Table 6, inhibitor of endothelial cell activation, down in SCD
# fetal hemoglobin (HbF) = settings: via NO-cGMP signaling pathway (Cokic, et al 2003)
# ET-3 = tested on: ET-3; parameters: key to Effect on ET-3: increases protein levels; decrease: reduces protein levels; exert no effect on protein levels; not known: has not been experimentally determined
# VLA-4 = tested on: VLA-4; parameters: key to Effect on VLA-4: increases protein levels; decrease: reduces protein levels; exert no effect on protein levels; not known: has not been experimentally determined
# NFkB = settings: for Effect on NFkB: Table 6, activator of endothelial cells, up in SCD
# VCAM-1 = tested on: VCAM-1; parameters: key to Effect on VCAM-1: increases protein levels; decrease: reduces protein levels; exert no effect on protein levels; not known: has not been experimentally determined
# ICAM-1 = settings: for Effect on ICAM-1: Table 6, adhesion, up in SCD
# IL-6 = settings: for Effect on IL-6: Table 6, chemokine/inflammatory, up in SCD
# [2] = tested on: (G) gamma-globin promoter
# cGMP = settings: Dai, et al 2011
# [3] = tested on: leukocyte-endothelial adhesion; settings: colonic UR injury (Santen, et al 2010)
# [4] = HU in SCD, endothelial adhesion molecule
# [5] = on the surface of erythrocytes, HU therapy
# [6] = colonic UR injury (Santen, et al 2010)
# [7] = Table 6, activator of endothelial cells, up in SCD
smiles,measurement,setting,value
"NC(=O)NO [HU, Hydroxyurea]",expression of IL-8,"IL-8; HU (Laurance, et al 2010)",increases
same,levels of IL-8,"IL-8; HU therapy (Lanaro, et al 2009)",no effect
same,Effect on IL-8,"IL-8; Table 6, chemokine/inflammatory, up in SCD",increase
same,levels of sSELE,SELE; [4],decreasing
same,Effect on SELE,SELE,decrease
same,Effect on CD36,"CD36; Table 6, adhesion, up in SCD",decrease
same,gene and protein expression of CD36,CD36; [5],reducing
same,erythrocyte-endothelial adhesion,[1],reduce
same,Effect on IL-1β,IL-1β,increase
same,levels of the pro-coagulatory molecule fibronectin,"FN1; HU (Saleh, et al 1999)",no demonstrable effects
same,Effect on FN1,FN1,no effect
same,levels of sSELP,SELP; [4],decreasing
same,Effect on SELP,SELP,decrease
same,Effect on IL-10,IL-10,increase
same,levels of anti-inflammatory mediator IL-10,IL-10,increase
same,Effect on TNFα,TNFα,decrease
same,levels of TNF-α,TNFα,decreased
same,Effect on IL-3,IL-3,increase
same,Effect on ET-1,ET-1,decrease
same,levels of vasoconstrictor ET-1,ET-1,decreasing
same,NO bioavailability,"NO; HU treatment of SCD (Conran, et al 2004)",increased
same,Effect on NO,NO,increase
same,levels of GM-CSF,"GM-CSF; HU therapy (Conran, et al 2007)",decreased
same,Effect on GM-CSF,"GM-CSF; Table 6, inflammatory, up in SCD",decrease
same,Effect on eNOS,eNOS,increase
same,production of fetal hemoglobin (HbF)-containing erythrocytes,fetal hemoglobin (HbF),increasing
same,levels of vasoconstrictor ET-3,"ET-3; HU in SCD (Makis, et al 2004)",decreasing
same,Effect on ET-3,"ET-3; Table 6, vasoconstrictor, up in SCD",decrease
same,Effect on VLA-4,"VLA-4; Table 6, adhesion, up in SCD",decrease
same,gene and protein expression of VLA-4,VLA-4; [5],reducing
same,Effect on NFkB,NFkB,decrease
same,levels of sVCAM-1,VCAM-1; [4],decreasing
same,Effect on VCAM-1,"VCAM-1; Table 6, adhesion, up in SCD",decrease
same,levels of sICAM-1,ICAM-1; [4],decreasing
same,Effect on ICAM-1,ICAM-1,decrease
same,expression of IL-6,"IL-6; HU (Laurance, et al 2010)",increases
same,Effect on IL-6,IL-6,increase
C=C1CC[C@H]2C(C)(C)CCC[C@]2(C)[C@H]1C/C=C1/C(=O)OC[C@@H]1O [Isocoronarin D],production of HbF,[2],induces
same,EGFP inducing potency or HbF production,"[2]; rank among seven diterpenes (Chokchaisiri, et al 2010)",highest
same,cell viability,K562 reporter cell line,75-80%
same,toxicity associated with HbF induction,K562 reporter cell line,little to no
"O=S(=O)(c1cccc2c(O)nccc12)N1CCCNCC1 [Hydroxyfasudil, 5-(1,4-diazepane-1-sulfonyl)isoquinolin-1-ol]",Effect on SELE,SELE,decrease
same,SELE,SELE; [6],reduce
same,levels of cGMP,cGMP,increased
same,leukocyte-endothelial adhesion,[3],diminishing
same,IL-1β,"IL-1β; He, et al 2008",decrease
same,Effect on IL-1β,IL-1β,decrease
same,Effect on FN1,FN1,decrease
same,Effect on SELP,SELP,decrease
same,SELP,SELP; [6],reduce
same,TF,"TF; Satoh, et al 2010",reduce
same,Effect on TF,TF; [7],decrease
same,Effect on IL-10,IL-10,increase
same,levels of anti-inflammatory mediator IL-10,IL-10,increase
same,Effect on HIF-1,HIF-1; [7],decrease
same,HIF-1α,"HIF-1; Takata, et al 2008",reduce
same,Effect on TNFα,TNFα,decrease
same,levels of TNF-α,TNFα,decrease
same,Effect on ET-1,ET-1,decrease
same,levels of vasoconstrictor ET-1,ET-1,suppress
same,Effect on ROS,"ROS; Table 6, IR injury-related molecule, up in SCD",decrease
same,injury-induced generation of ROS,"ROS; UR injury (Shiotani, et al 2004)",suppress
same,levels of NO,"NO; Dai, et al 2011",increased
same,Effect on NO,NO,increase
same,levels of eNOS,"eNOS; Dai, et al 2011",increased
same,Effect on eNOS,eNOS,increase
same,NFκB,"NFkB; He, et al 2008",reduce
same,Effect on NFkB,NFkB,decrease
same,Effect on ICAM-1,ICAM-1,decrease
same,ICAM-1,ICAM-1; [6],reduce
same,ICAM-1 expression,"ICAM-1; diabetes-induced microvascular damage (Arita, et al 2009)",reduce
same,Effect on IL-6,IL-6,decrease
same,IL-6 levels,"IL-6; after hypoxia/reoxygenation injury in brain tissue (Ding, et al 2010)",reduce
